From US9573972B2, “Nurotoxic sterol glycosides” (priority 2008, dated 2017)

Legend:
male CD-1 mice = test: Open field monitoring, SG-fed mice; assay type: in vivo, mouse; details: SG-fed vs control
Description: Five-month old male CD-1 mice (30.1-35.7 g, 7.5 cm-8.8 cm) were purchased from Charles River (Wilmington, Mass.). Adult mice were chosen to mimic the mean age of onset of ALS-PDC (Kurland, L. T. (1988a) Trends Neurosci. 11, 51-4; Kurland, L. T., et al. (1994) Amyotrophic lateral sclerosis-parkinsonism-dementia complex on Guam: epidemiologic and etiological perspectives. 109-131). Thirty mice for the SG study were randomly divided into 2 groups (14 control and 16 experimental animals). All animals were housed singly in a virus-free barrier facility in a room maintained at 22° C. under a 12 hour light/dark cycle. The mice were provided ad libitum access to food and water.
The synthetic SG was mixed with finely ground Purina Chow mouse pellets (Mouse Diet™, Purina) to create the experimental pellets with a SG content of 1000 μg per pellet. Dry materials were blended with a sterile silicon spatula. For every 5 g of standard feed, 2.5 mL of doubly-distilled water (dd)H2O was added and the dough was kneaded and round up into pellets. A single sterol glucoside containing pellet was placed in the feeding tray each morning before the addition of regular mouse chow (ad libitum). All experimental pellets were entirely consumed by the mice each day. Control mice were fed standard mouse chow pellets of identical weight with no additives. SG feeding was conducted daily for 15 weeks and mice were behaviorally monitored until sacrifice at 35 weeks (time point 1) or 52 weeks (time point 2).
Open field monitoring: Spontaneous activity in an open field is considered one of the most standardized general measures of motor function (Crawley, 2000). The open field test can also reveal stress response in animals (i.e. defensive burying or thigmotaxis) (Karl et al., Exp Toxicol Pathol., 2003, 55(1):69-83). Open field testing of each animal was conducted every two weeks. A single mouse was placed in one of four round open field arena/tubs (approximately 1 m diameter) to permit the testing of four animals per 5 minute trial. […] This in turn, increases the likelihood of detection of fear-based behavior (Crawley, 2000) and minimizes habituation of the animal to the open field (Crawley, 2000). Testing arenas were cleaned with 70% ethanol before the testing of each animal and with quatricide at the end of each testing session. Movements were recorded using a video camera mounted on the ceiling. Video clips were reviewed and were manually scored or automatically analysed on an automated video tracking software (Ethovision® 3.1, Noldus Information Technologies Inc., Leesburg, Va., USA). Scoring was done on videotaped sessions, rather than in-person at the time of testing to avoid the introduction of confounding variables by the presence of an observer in close proximity to the mice (Crawley, 2000).

Cytochrome c oxidase = Cytochrome c oxidase histochemistry; assay type: in vivo, mouse; details: SG-fed vs control
Method: Tissue-mounted slides were processed for […] in a manner adapted from (Seligman et al., J. Cell. Biol. 1968; 38: 1-14) and Wong-Riley, (1979), Brain Res. 171, 11-28. Sections were rinsed in coplin jars for 15 minutes at RT in three changes of PBS and subsequently incubated with a media comprised of 50 mg of 3,3′-diaminobenzidine tetrahydrochloride (DAB) (DAB substrate system, Vector Laboratories, Burlingame, Calif., USA), 90 mL 0.1M phosphate buffer, 20 mg cytochrome c (type III, Sigma-Aldrich Co., Oakville, ON, Canada), and 4 g of sucrose in a dish submerged in a water bath maintained at 37° C. in the dark for 2 hours. The sections were monitored closely for the brown reaction product to appear within the tissue. Once a medium-brown color was achieved, slides were removed from the incubation media and rinsed for 15 minutes in three changes of PBS to stop the reaction. This was followed with a 2 minutes rinse in distilled water to remove residue from the slides. The slides were dried under a fume hood and cover-slipped with Entellen (Merck, Darmstadt, Germany).
The numbers of immunoreactive somata or inclusions were counted across the ventral horn of the spinal cord, across brain hemispheres, or per dorsal or ventral root with the 40× objective lens in a 600 μm/600 μm area within region perimeters defined by a mouse brain atlas (2001). For each animal, eight cross-sections per spinal cord or brain region were studied. […] For quantification of the level of mitochondrial activity (cytochrome c oxidase labelling) in the lumbar spinal cord or tyrosine hydroxylase immunoreactivity in the substantia nigra pars compacta and striatal sections, images captured using the Motic B5 Professional Series 3.0 microscope (Motic Instruments Inc., Richmond, ON) and analyzed using Motic B5 Professional, Motic Images Advanced 3.0 (Motic Instruments Inc., Richmond, ON) were scanned into a TIFF format file and analysed using the NIH Image J 1.37 software to measure density levels of antibody labelling. […]

CC[C@H](/C=C/[C@@H](C)[C@H]1CC[C@H]2[C@@H]3CC=C4C[C@@H](O[C@@H]5O[C@H](CO)[C@@H](O)[C@H](O)[C@H]5O)CC[C@]4(C)[C@H]3CC[C@]12C)C(C)C [SG, Stigmasterol β-D-Glucopyranoside]
Total distance moved (male CD-1 mice; Time-point 1 (35 wk)): Total distance moved (ns) | Total distance to zone border (male CD-1 mice; Time-point 1 (35 wk)): Total distance to zone border (ns) | Total turn angle (male CD-1 mice; Time-point 1 (35 wk)): Total turn angle (ns) | Total distance to zone border (male CD-1 mice; Time-point 2 (52 wk)): Total distance to zone border* (*p < 0.05) | Cytochrome c oxidase activity (Cytochrome c oxidase; Time-point 1 (35 wk)): (ns) | Cytochrome c oxidase activity (Cytochrome c oxidase; Time-point 2 (52 wk)): (ns) | Cytochrome c oxidase activity, difference between groups (Cytochrome c oxidase; at 35 or 52 weeks): no significant differences
